# Data as given in patent publication US10160747B2, “Compounds and methods for kinase modulation, and indications therefor” (Plexxikon Inc., priority 2016, dated 2018).
# Key:
# [1] = system: MOLM-14 D835Y (endogenous FLT3 ITD and transfected FLT3 D835Y); assay: MOLM-14 D835Y cell proliferation assay (CellTiter-Glo); assay type: cell-based; conditions: Homo sapiens, MOLM-14, 72 h; 3 d growth, GMean
# In short: (§1)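 MOLM-14 cells (FLT3 ITD) carrying D835Y or F691L, 1×10^4 cells/well, eight 1:3 dilutions from 1 μM final, 0.2% DMSO, 3 days at 37 °C, 5% CO2. Viability by CellTiter-Glo luminescence (ATP content); IC50 from concentration-response.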
# [2] = system: MOLM-14 F691L (endogenous FLT3 ITD and transfected FLT3 F691L); assay: MOLM-14 F691L cell proliferation assay (CellTiter-Glo); assay type: cell-based; conditions: Homo sapiens, MOLM-14, 72 h; 3 d growth, GMean
# In short: as §1
# BA/F3-FLT3-ITD + D835Y = biological target: T1, BA/F3-FLT3-ITD + D835Y (Homo sapiens, UniProt P36888, D835Y, cells depend on it, form not given); assay: Engineered BA/F3 cell growth assay, FLT3 ITD/D835Y; assay type: cell-based, murine; conditions: 3 d growth
# T1 sequence (P36888 with tags, fused parts or gaps INS600HVDFREYEYD/D835Y): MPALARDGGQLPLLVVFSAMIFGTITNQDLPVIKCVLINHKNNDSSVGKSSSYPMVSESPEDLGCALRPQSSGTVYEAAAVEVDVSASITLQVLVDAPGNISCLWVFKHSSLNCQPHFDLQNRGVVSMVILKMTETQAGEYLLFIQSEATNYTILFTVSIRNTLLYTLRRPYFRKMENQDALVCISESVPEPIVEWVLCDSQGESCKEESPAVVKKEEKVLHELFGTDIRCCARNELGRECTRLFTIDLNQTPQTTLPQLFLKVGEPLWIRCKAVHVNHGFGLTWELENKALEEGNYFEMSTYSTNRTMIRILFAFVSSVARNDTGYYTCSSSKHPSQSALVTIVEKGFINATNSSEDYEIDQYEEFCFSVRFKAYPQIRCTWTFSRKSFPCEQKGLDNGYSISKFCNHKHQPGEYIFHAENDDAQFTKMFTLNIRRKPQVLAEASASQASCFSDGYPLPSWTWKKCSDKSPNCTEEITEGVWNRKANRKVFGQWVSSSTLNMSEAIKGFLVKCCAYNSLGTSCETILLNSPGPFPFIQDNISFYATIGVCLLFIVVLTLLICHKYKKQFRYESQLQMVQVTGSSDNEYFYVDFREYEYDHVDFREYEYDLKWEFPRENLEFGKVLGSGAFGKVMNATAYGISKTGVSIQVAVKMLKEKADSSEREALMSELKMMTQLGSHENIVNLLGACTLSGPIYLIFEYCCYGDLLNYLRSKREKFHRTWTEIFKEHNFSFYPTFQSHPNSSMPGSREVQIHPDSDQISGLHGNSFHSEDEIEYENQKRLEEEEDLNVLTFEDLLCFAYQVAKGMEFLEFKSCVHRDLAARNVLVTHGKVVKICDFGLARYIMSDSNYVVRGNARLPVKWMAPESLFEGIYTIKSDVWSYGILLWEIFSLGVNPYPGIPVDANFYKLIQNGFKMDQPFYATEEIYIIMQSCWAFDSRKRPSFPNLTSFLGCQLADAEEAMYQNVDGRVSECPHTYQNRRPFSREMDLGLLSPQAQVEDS
# In short: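 Murine Ba/F3 cells transfected with full-length FLT3 ITD/D835Y, grown without IL-3 so growth depends on FLT3. Seeded at 1×10^4 cells/well, 8-point 1:3 series to 1 μM top (0.2% DMSO), 3 days at 37 °C. CellTiter-Glo luminescence (ATP) versus concentration gave IC50.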
IC50 [1] [µM],IC50 [2] [µM],GI50 (BA/F3-FLT3-ITD + D835Y) [µM],Compound
0.0001 to 10,0.0001 to 10,0.0001 to 10,"Cc1ncc(NC(=O)Cc2ccc(-c3cnc(Nc4cnn5ccccc45)nc3)cc2F)cc1C(F)(F)F [Compound P-0065, 2-(2-fluoro-4-(2-(pyrazolo[1,5-a]pyridin-3-ylamino)pyrimidin-5-yl)phenyl)-N-(6-methyl-5-(trifluoromethyl)pyridin-3-yl)acetamide]"
0.0001 to 10,0.0001 to 10,0.0001 to 10,"Cc1ncc(NC(=O)Cc2ccc(-c3cnc4[nH]nc(C5CC5)c4c3)cc2F)cc1C(F)(F)F [Compound P-0066, 2-(4-(3-cyclopropyl-1H-pyrazolo[3,4-b]pyridin-5-yl)-2-fluorophenyl)-N-(6-methyl-5-(trifluoromethyl)pyridin-3-yl)acetamide]"
0.0001 to 10,0.0001 to 10,0.0001 to 10,"Cc1ncc(NC(=O)Cc2ccc(-c3cnc4[nH]c(Cl)cc4c3)cc2F)cc1C(F)(F)F [Compound P-0067, 2-[4-(2-chloro-1H-pyrrolo[2,3-b]pyridin-5-yl)-2-fluoro-phenyl]-N-[6-methyl-5-(trifluoromethyl)-3-pyridyl]acetamide]"
0.0001 to 10,0.0001 to 10,0.0001 to 10,"CCC(=O)c1c[nH]c2ncc(-c3ccc(CC(=O)Nc4cncc(C(F)(F)F)c4)c(F)c3)cc12 [Compound P-0068, 2-[2-fluoro-4-(3-propanoyl-1H-pyrrolo[2,3-b]pyridin-5-yl)phenyl]-N-[5-(trifluoromethyl)-3-pyridyl]acetamide]"
0.0001 to 10,0.0001 to 10,0.0001 to 10,"CCC(=O)c1c[nH]c2ncc(-c3ccc(CC(=O)Nc4cnc(C)c(C(F)(F)F)c4)c(F)c3)cc12 [Compound P-0070, 2-[2-fluoro-4-(3-propanoyl-1H-pyrrolo[2,3-b]pyridin-5-yl)phenyl]-N-[6-methyl-5-(trifluoromethyl)-3-pyridyl]acetamide]"
0.0001 to 10,0.0001 to 10,0.0001 to 10,"O=C(Cc1ccc(-c2cnc(Nc3cnn4ccccc34)nc2)c(F)c1)Nc1cncc(C(F)(F)F)c1 [Compound P-0071, 2-[3-fluoro-4-[2-(pyrazolo[1,5-a]pyridin-3-ylamino)pyrimidin-5-yl]phenyl]-N-[5-(trifluoromethyl)-3-pyridyl]acetamide]"

# The remaining lines, values behind:
Compound,IC50 [1] [µM],IC50 [2] [µM],GI50 (BA/F3-FLT3-ITD + D835Y) [µM]
"CC(C)(C)c1ccc(NC(=O)Cc2ccc(-c3cnc4[nH]cc(F)c4c3)cc2F)cn1 [Compound P-0043, N-(6-tert-butyl-3-pyridyl)-2-[2-fluoro-4-(3-fluoro-1H-pyrrolo[2,3-b]pyridin-5-yl)phenyl]acetamide]",0.0001 to 10,0.0001 to 10,0.0001 to 10
"O=C(Cc1ccc(-c2cnc3[nH]cc(F)c3c2)cc1F)Nc1cc(Cl)c(C2CC2)cn1 [Compound P-0044, N-(4-chloro-5-cyclopropyl-2-pyridyl)-2-[2-fluoro-4-(3-fluoro-1H-pyrrolo[2,3-b]pyridin-5-yl)phenyl]acetamide]",0.0001 to 10,0.0001 to 10,0.0001 to 10
"COc1ncc(NC(=O)Cc2ccc(-c3cnc4[nH]cc(Cl)c4n3)cc2F)cc1C(F)(F)F [Compound P-0047, 2-[4-(7-chloro-5H-pyrrolo[2,3-b]pyrazin-2-yl)-2-fluoro-phenyl]-N-[6-methoxy-5-(trifluoromethyl)-3-pyridyl]acetamide]",0.0001 to 10,0.0001 to 10,0.0001 to 10
"COc1nn(C[C@H](C)O)cc1Nc1ncc(-c2ccc(CC(=O)Nc3cncc(C(F)(F)F)c3)c(F)c2)cn1 [Compound P-0050, 2-[2-fluoro-4-[2-[[1-[(2S)-2-hydroxypropyl]-3-methoxy-pyrazol-4-yl]amino]pyrimidin-5-yl]phenyl]-N-[5-(trifluoromethyl)-3-pyridyl]acetamide]",0.0001 to 10,0.0001 to 10,0.0001 to 10
"Cn1cnc(Nc2ncc(-c3ccc(CC(=O)Nc4cncc(C(F)(F)F)c4)c(F)c3)cn2)c1 [Compound P-0052, 2-[2-fluoro-4-[2-[(1-methylimidazol-4-yl)amino]pyrimidin-5-yl]phenyl]-N-[5-(trifluoromethyl)-3-pyridyl]acetamide]",0.0001 to 10,0.0001 to 10,0.0001 to 10
"O=C(Cc1ccc(-c2cnc3[nH]cc(F)c3c2)cc1F)Nc1cncc(C(F)(F)F)c1 [Compound P-0053, 2-[2-fluoro-4-(3-fluoro-1H-pyrrolo[2,3-b]pyridin-5-yl)phenyl]-N-[5-(trifluoromethyl)-3-pyridyl]acetamide]",0.0001 to 10,0.0001 to 10,0.0001 to 10
"CC(=O)c1c[nH]c2ncc(-c3ccc(CC(=O)Nc4cncc(C(F)(F)F)c4)c(F)c3)cc12 [Compound P-0055, 2-[4-(3-acetyl-1H-pyrrolo[2,3-b]pyridin-5-yl)-2-fluoro-phenyl]-N-[5-(trifluoromethyl)-3-pyridyl]acetamide]",0.0001 to 10,0.0001 to 10,0.0001 to 10
"Cc1ncc(NC(=O)Cc2ccc(-c3cnc4c(c3)C3(CC3)C(=O)N4)cc2F)cc1C(F)(F)F [Compound P-0057, 2-[2-fluoro-4-(2-oxospiro[1H-pyrrolo[2,3-b]pyridine-3,1′-cyclopropane]-5-yl)phenyl]-N-[6-methyl-5-(trifluoromethyl)-3-pyridyl]acetamide]",0.0001 to 10,0.0001 to 10,0.0001 to 10
"O=C(Cc1ccc(-c2cnc(Nc3cnn4ccccc34)nc2)cc1F)Nc1cncc(C(F)(F)F)c1 [Compound P-0058, 2-[2-fluoro-4-[2-(pyrazolo[1,5-a]pyridin-3-ylamino)pyrimidin-5-yl]phenyl]-N-[5-(trifluoromethyl)-3-pyridyl]acetamide]",0.0001 to 10,0.0001 to 10,0.0001 to 10
"Cc1ncc(NC(=O)Cc2ccc(-c3cnc4[nH]cc(Cl)c4n3)cc2F)cc1C(F)(F)F [Compound P-0059, 2-[4-(7-chloro-5H-pyrrolo[2,3-b]pyrazin-2-yl)-2-fluoro-phenyl]-N-[6-methyl-5-(trifluoromethyl)-3-pyridyl]acetamide]",0.0001 to 10,0.0001 to 10,0.0001 to 10
"O=C(Cc1ccc(-c2cnc3[nH]cc(Cl)c3n2)cc1F)Nc1cnc(Cl)c(C(F)(F)F)c1 [Compound P-0060, 2-[4-(7-chloro-5H-pyrrolo[2,3-b]pyrazin-2-yl)-2-fluoro-phenyl]-N-[6-chloro-5-(trifluoromethyl)-3-pyridyl]acetamide]",0.0001 to 10,0.0001 to 10,0.0001 to 10
"O=C(Cc1ccc(-c2cnc3[nH]cc(Cl)c3n2)cc1F)Nc1cncc(C(F)(F)F)c1 [Compound P-0061, 2-[4-(7-chloro-5H-pyrrolo[2,3-b]pyrazin-2-yl)-2-fluoro-phenyl]-N-[5-(trifluoromethyl)-3-pyridyl]acetamide]",0.0001 to 10,0.0001 to 10,0.0001 to 10
"Cc1ncc(NC(=O)Cc2ccc(-c3cnc4[nH]cc(F)c4c3)cc2F)cc1C(F)(F)F [Compound P-0062, 2-[2-fluoro-4-(3-fluoro-1H-pyrrolo[2,3-b]pyridin-5-yl)phenyl]-N-[6-methyl-5-(trifluoromethyl)-3-pyridyl]acetamide]",0.0001 to 10,0.0001 to 10,0.0001 to 10
"CC(=O)c1c[nH]c2ncc(-c3ccc(CC(=O)Nc4cnc(C)c(C(F)(F)F)c4)c(F)c3)cc12 [Compound P-0063, 2-[4-(3-acetyl-1H-pyrrolo[2,3-b]pyridin-5-yl)-2-fluoro-phenyl]-N-[6-methyl-5-(trifluoromethyl)-3-pyridyl]acetamide]",0.0001 to 10,0.0001 to 10,0.0001 to 10
